Two molecules from patent publication US5338736A, “Angiotensin II receptor blocking 2,3,6-substituted quinazolinones” (American Cyanamid Company, priority 1993, dated 1994) can be followed below.

In the experiment the target is T1, Angiotensin II Receptor (Bos taurus, UniProt P25104).
T1 construct: The brownish tissue forming the adrenal cortex is scraped off and finely minced with scissors before homogenization; tissue Maxwell-Cohen (local slaughter house); host or cells: beef adrenal cortex, microsomal membranes
T1 sequence (P25104 1-359): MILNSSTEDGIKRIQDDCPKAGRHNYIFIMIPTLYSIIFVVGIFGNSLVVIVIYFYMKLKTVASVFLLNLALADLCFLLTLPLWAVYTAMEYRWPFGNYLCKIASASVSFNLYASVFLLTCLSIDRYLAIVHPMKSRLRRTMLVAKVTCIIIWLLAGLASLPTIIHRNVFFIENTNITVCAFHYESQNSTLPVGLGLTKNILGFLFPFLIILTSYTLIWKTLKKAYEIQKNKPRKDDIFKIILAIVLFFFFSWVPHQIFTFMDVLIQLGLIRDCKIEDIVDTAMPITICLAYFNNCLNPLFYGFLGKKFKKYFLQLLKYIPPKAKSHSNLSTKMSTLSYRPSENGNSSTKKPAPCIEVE
The experiment in a line: Receptor Binding Assay: competition with [^125 I](Sar^1, Ile^8)AngII on adrenal cortex microsomal membranes. Also on record: species or system beef. An excerpt: Beef adrenals are obtained from a local slaughter house (Maxwell-Cohen). […] All unlabeled AngII analogs, Dimethylsulfoxide (DMSO), nucleotides, bovine serum albumin (BSA) are purchased from Sigma Chemical Co., St. Louis, Mo. U.S.A.
Approximately sixteen (16) to twenty (20) beef adrenal glands are processed as follows: fresh adrenal glands received on crushed ice are cleaned of fatty tissues and the tough membranes encapsulating the glands are removed and discarded. The brownish tissue forming the adrenal cortex is scraped off and finely minced with scissors before homogenization. Care is taken to avoid contamination with medullary tissue during dissection. The scraped cortices are suspended in twenty volumes of an ice-cold buffer medium consisting of 10 mM Tris.HCl (pH 7.4 at 22° C.) and containing 1.0 mM EDTA and 0.2M sucrose. Unless otherwise indicated, all subsequent operations are done at 4° C. […] The homogenate is centrifuged first at low speed (3,000× g) for 10 min. The resulting pellet is discarded and the supernatant fluid recentrifuged at 10,000× g for 15 minutes to give a P2 pellet. […] The translucent final pellet is harvested and combined in a small volume (20-50.0 ml) of 50.0 mM Tris.HCl buffer, pH 7.2. […] The pelleted membrane is reconstituted in 50.0 mM Tris.HCl buffer containing 0.1 mM of phenylmethylsulfonyl fluoride (PMSF) to give approximately a protein concentration of 2.5 mg per ml of tissue suspension. The membrane preparation is finally aliquoted in 1.0 ml volumes and stored at -70° C. until use in the binding assays.
Assays are performed in triplicate. The wells are left undisturbed for 60 min. at room temperature. […] The filter discs are washed with 10×1.0 ml of cold 0.9% NaCl to remove unbound ligand. […] This method is routinely used. The filters are removed from the filter grid and counted in a Parkard® Cobra Gamma Counter for 1 min. (Packard Instrument Co., Downers Grove, Ill., U.S.A.).

As usually defined, the IC50 is the point on the concentration scale where inhibition reaches its midpoint. A lower IC50 goes with higher potency. `CCCCc1nc2ccc(C3CCC4CCCC4O3)cc2c(=O)n1Cc1ccc(-c2ccccc2-c2nn[nH]n2)cc1` (centres unmarked) [Example 10] had an IC50 (beef adrenal cortex membranes, [^125 I](Sar^1, Ile^8)AngII, 60 min, room temperature, pH 7.4) of 0.105 µM. On to “[^125 I](Sar^1, Ile^8)AngII [reference compound]”, for which, under “non-specific binding with 1.0 μM unlabeled (Sar^1, Ile^8)AngII”, the “Specific binding for [^125 I](Sar^1, Ile^8)AngII” value is “greater than 90%”.
